Measured values reported in ChEMBL document CHEMBL5728699, “Macrocyclic compounds for treatment of medical disorders” (2021).

Target: Complement factor D (Homo sapiens, UniProt P00746)
Assay: Human Factor D Assay: Human Factor D (purified from human serum, Complement Technology, Inc.) at 80 nM final concentration is incubated with test compound at various concentrations for 5 min at room temperature in 50 mM Tris, 1M NaCl, pH 7.5. A synthetic substrate Z-L-Lys-SBzl and DTNB (Ellman's reagent) are added to final concentrations of 100 µM each. Absorbance at 405 nm (A405) is recorded at 30 second intervals for 30 minutes using a microplate spectrophotometer. IC50 values are calculated by nonlinear regression of Complement Factor D reaction rates as a function of test compound concentration.

Complement factor D, sequence (P00746 whole entry): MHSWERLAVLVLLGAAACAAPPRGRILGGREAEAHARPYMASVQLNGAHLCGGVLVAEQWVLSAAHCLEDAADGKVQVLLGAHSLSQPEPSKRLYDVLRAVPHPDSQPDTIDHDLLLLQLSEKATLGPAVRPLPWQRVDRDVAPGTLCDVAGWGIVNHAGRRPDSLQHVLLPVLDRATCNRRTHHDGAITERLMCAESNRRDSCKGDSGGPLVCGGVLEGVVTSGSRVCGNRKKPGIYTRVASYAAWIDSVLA

SMILES | IC50
CC(=O)c1nn2c3c(cc(-c4cnc(C)nc4)cc13)CC/C=C\CCCC(=O)NC[C@@]13C[C@@H](C(=O)Nc4nc(Br)ccc4C)N(C(=O)C2)[C@@H]1C3 | < 1 µM
CC(=O)c1nn(CC(=O)N2[C@H]3C[C@@]4(/C=C\CCCCN(C)C(=O)Cc5ccc(Br)nc5NC3=O)C[C@@H]24)c2ccc(-c3cnc(C)nc3)cc12 | < 1 µM
CC(=O)c1nn2c3c(cc(-c4cnc(C)nc4)cc13)CCCCCC/C=C\c1cn(nn1)C[C@@]13C[C@@H](C(=O)Nc4nc(Br)ccc4C)N(C(=O)C2)[C@@H]1C3 | < 1 µM
CC(=O)c1nn(CC(=O)N2[C@H]3C[C@]4(C[C@@H]24)CN2CC(CCCOCc4ccc(Br)nc4NC3=O)C2)c2c(C)cc(-c3cnc(C)nc3)cc12 | < 1 µM
CC(=O)c1nn2c3c(cc(-c4cnc(C)nc4)cc13)C/C=C\CCCC(=O)NC[C@@]13C[C@@H](C(=O)Nc4nc(Br)ccc4C)N(C(=O)C2)[C@@H]1C3 | < 1 µM
CC(=O)c1nn(CC(=O)N2[C@H]3C[C@]4(C[C@@H]24)CN(C)CC(O)C(O)COCc2ccc(Br)nc2NC3=O)c2cnc(-c3cnc(C)nc3)cc12 (stereo not given in full) | < 1 µM
CC(=O)c1nn(CC(=O)N2[C@H]3C[C@]4(C[C@@H]24)CN(C)CCCC/C=C\Cc2ccc(Br)nc2NC3=O)c2c(CF)cc(-c3cnc(C)nc3)cc12 | < 1 µM
CC(=O)N[C@H]1C/C=C\COCc2ccc(Br)nc2NC(=O)[C@@H]2C[C@@]3(CNC1=O)C[C@H]3N2C(=O)Cn1nc(C(C)=O)c2cc(-c3cnc(C)nc3)ccc21 | < 1 µM
CC(=O)c1nn2c3c(cc(-c4cnc(C)nc4)cc13)C/C=C\CCCC(=O)NC[C@@]13C[C@@H](C(=O)Nc4nc(C(F)(F)F)ccc4C)N(C(=O)C2)[C@@H]1C3 | < 1 µM
C=C1COCc2ccc(Br)nc2NC(=O)[C@@H]2C[C@]3(C[C@H]3N2C(=O)Cn2nc(C(C)=O)c3cc(-c4cnc(C)nc4)ncc32)Cn2cc1cn2 | < 1 µM
